Values quoted from earlier work as cited in patent US20060035317A1, “Effect of treatment with 4,5-dihydroxy-2-cyclopenten-1-one (dhcp) on gene expression and quorum-sensing in bacteria” (priority 2002, published 2006).
Like-named read-outs stand apart in the source and are kept apart here.

System: E. coli (gene expression)
Conditions: Wang et al., 2001, cited from earlier work

Structure (SMILES): c1ccc2[nH]ccc2c1 [indole]
- Induction of gene by indole (gene cysK): induces
- Induction of gene by indole (gene gabT): not
